Drawing on patent publication US9580411B2, “Substituted sulfonamide compounds” (Hoffmann-La Roche Inc., priority 2012, dated 2017), this text covers IC50 for 24 molecules.

hTRPA1, sequence (O75762 whole entry): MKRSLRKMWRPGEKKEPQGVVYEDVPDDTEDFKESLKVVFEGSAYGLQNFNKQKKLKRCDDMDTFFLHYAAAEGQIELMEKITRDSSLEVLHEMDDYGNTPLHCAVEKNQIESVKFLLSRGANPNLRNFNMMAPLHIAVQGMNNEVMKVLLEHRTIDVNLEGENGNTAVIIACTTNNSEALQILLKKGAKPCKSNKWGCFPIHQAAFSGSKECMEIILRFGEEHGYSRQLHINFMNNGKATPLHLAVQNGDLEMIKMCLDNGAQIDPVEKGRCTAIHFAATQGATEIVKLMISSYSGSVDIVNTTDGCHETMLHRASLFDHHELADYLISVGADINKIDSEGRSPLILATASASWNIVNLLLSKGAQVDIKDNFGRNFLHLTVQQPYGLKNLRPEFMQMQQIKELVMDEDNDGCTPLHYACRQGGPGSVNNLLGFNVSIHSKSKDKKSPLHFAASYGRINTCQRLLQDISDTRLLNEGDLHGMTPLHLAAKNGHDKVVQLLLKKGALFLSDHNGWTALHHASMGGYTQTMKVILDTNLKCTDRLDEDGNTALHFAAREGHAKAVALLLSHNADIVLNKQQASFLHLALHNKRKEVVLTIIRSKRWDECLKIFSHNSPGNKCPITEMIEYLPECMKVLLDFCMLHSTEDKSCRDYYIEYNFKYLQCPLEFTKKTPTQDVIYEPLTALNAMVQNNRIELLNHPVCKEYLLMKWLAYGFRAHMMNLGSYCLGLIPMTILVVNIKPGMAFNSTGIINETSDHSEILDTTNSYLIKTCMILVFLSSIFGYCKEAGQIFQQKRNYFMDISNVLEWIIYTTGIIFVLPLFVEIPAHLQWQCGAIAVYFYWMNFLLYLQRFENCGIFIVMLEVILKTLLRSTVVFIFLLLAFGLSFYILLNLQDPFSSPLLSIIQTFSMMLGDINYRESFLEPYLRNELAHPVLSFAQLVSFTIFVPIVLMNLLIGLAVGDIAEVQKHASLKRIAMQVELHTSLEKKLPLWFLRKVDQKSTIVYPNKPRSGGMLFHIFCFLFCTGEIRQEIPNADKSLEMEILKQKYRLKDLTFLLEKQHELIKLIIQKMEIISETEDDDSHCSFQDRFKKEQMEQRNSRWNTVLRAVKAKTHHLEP

In the assay the target is hTRPA1 (Homo sapiens (Human), UniProt O75762). The assay is described as follows: Dose response calcium flux assay (FLIPR), ChanTest hTRPA1-CHO stably transfected cell line. The format is cell-based. The following applies: CHO-K1 Tet-On human TRPA1 cells, cinnamaldehyde agonist (final 100 uM). Here is the method:
IC50 Determinations of Exemplified Compounds Dose Response Assay: Chan Test hTRPA1-CHO Stably Transfected Cell Line
CHO-K1 Tet-On_HOMSA_TRPA1_Clone_20
Chinese Hamster Ovary cells, inducible expression
• Ham's F-12 with 10% tetracycline-free FBS • 1× penicillin-streptomycin • 1× glutamax • 0.01 mg/ml Blasticidin • 0.40 mg/ml Zeocin • The cell line doubling rate was ˜15 hours. […] Experiments were run at 24 hours post induction. Plating Conditions CHOK1/TRPA1 Cells: • Harvested cells with 0.025% trypsin/EDTA. • Resuspended cells in growth media without selection antibiotics. • Measured cell density and diluted to 2.4×10^5 cells/ml in media containing 1 ug/ml Doxycycline Plate 25 ul/well into 384 well black/clear tissue culture-treated plates. • Incubated overnight at 37° C. Calcium Flux Assay: Day of Assay: Reagents: • Replacement Buffer: Hank's Balanced Salt Solution, 20 mM HEPES along with 0.005% BSA and 2× Probenecid • Dye Loading Buffer: Cal-3 NW Calcium dye was prepared by dissolving the contents of one vial with […] Hank's Balanced Salt Solution containing 20 mM HEPES. • Control compounds for CHOK1/TRPA1 cells: AP-18, stock 10 mM, prepare 3.5× compound dilution in a Compound Buffer (HBSS/20 mM HEPES/0.005% BSA)—final concentration 10 uM. • Preparation of Cinnamaldehyde (agonist addition): FW=132.16 • Specific gravity=1.046 gm/cc • 1.32 gm/1.046 gm/cc=1.26 ml of stock • Add 1.74 ml DMSO=3.3 M stock • Working solution 4.5× (final 100 uM in Compound Buffer: HBSS/20 mM HEPES/0.005% BSA) • Compounds dilutions were prepared from 5 or 10 mM stock (100% DMSO): • Adjustments of volumes and concentrations were made at time of titration to reflect desired final assay concentrations. • Compounds were tested at either 20 μM three folds dilution 11 steps out or 30 μM two folds dilution 11 steps out. • 3 μl of diluted compound were transferred into Weidmann 384-well plate in duplicates side-by-side. • Compound plates were resuspended with 100 ul of HBSS/20 mM HEPES/0.005% BSA buffer (Compound Buffer): • column 1A-H: buffer/DMSO (bk) • column 2A-H: AP-18 (control antagonist for CHOK1 TRPA1 cells) • column 1I-P: ATP (control for CHOK1 teton cells) • column 2 I-P: 2APB (control antagonist for CHOK1/TRPM8 cells). Growth media was removed from the cell plates (20 ul) and 20 ul of the Replacement Buffer was added followed by addition of 25 ul of diluted dye. All three steps were performed using a Plate Washer BioTek 407. The plates were then incubated for 30′ at RT.
After incubation, both the cell and compound plates were brought to the FLIPR and 20 ul of the diluted compounds/antagonist/bk were transferred to the cell plates by the FLIPR. Plates were then incubated for 30′ at room temperature. After 30′ incubation, plates were returned to the FLIPR and 20 ul of 4.5× Cinnamaldehyde was added to the cell plates. During the compound addition as well as agonist addition, fluorescence readings were taken simultaneously from all 384 wells of the cell plate every 1.5 seconds. Five readings were taken to establish a stable baseline, then 20 ul of sample was rapidly (30 ul/sec) and simultaneously added to each well of the cell plate. The fluorescence was continuously monitored before, during and after sample/agonist addition for a total elapsed time of 100 seconds (compound addition) and 120 seconds (agonist addition). Responses (increase in peak fluorescence) in each well following agonist addition was determined. The initial fluorescence reading from each well, prior to ligand stimulation, was used a zero baseline value for the data from that well.
For orientation: Calcium assays in cells follow changes in intracellular calcium, usually with a dye or a luminescent sensor.
Broadly, the IC50 is the point on the concentration scale where inhibition reaches its midpoint. `CC(C)N(CC(=O)NCc1ccnc(-c2cnc(C(F)(F)F)nc2)c1)S(=O)(=O)c1ccc(F)cc1` [Example 74, 2-[(4-Fluoro-benzenesulfonyl)-isopropyl-amino]-N-[2-(2-trifluoromethyl-pyrimidin-5-yl)-pyridin-4-ylmethyl]-acetamide]: the IC50 was found to be 298 nM. Turning to `CC(C)N(CC(=O)NCc1cc(-c2ccc(C(F)(F)F)cc2)ncn1)S(=O)(=O)c1cccnc1` [Example 56, 2-[Isopropyl-(pyridine-3-sulfonyl)-amino]-N-[6-(4-trifluoromethyl-phenyl)-pyrimidin-4-ylmethyl]-acetamide], the IC50 was 550 nM. For the molecule `CC(C)N(CC(=O)NCc1ccc(-c2cccc(C(F)(F)F)c2)cc1)S(=O)(=O)c1ccc(F)cc1` [Example 34, 2-[(4-Fluoro-benzenesulfonyl)-isopropyl-amino]-N-(3′-trifluoromethyl-biphenyl-4-ylmethyl)-acetamide], the IC50 was 3660 nM. With `CC(C)N(CC(=O)NCc1cccc(-c2cnc(C(F)(F)F)cn2)c1)S(=O)(=O)c1ccc(Cl)nc1` [Example 72, 2-[(6-Chloro-pyridine-3-sulfonyl)-isopropyl-amino]-N-[3-(5-trifluoromethyl-pyrazin-2-yl)-benzyl]-acetamide], the IC50 is 233 nM. As for `CN(CC(=O)NCc1cccc(-c2ccc(C(F)(F)F)cn2)c1)S(=O)(=O)c1ccc(F)cc1` [Example 41, 2-[(4-Fluoro-benzenesulfonyl)-methyl-amino]-N-[3-(5-trifluoromethyl-pyridin-2-yl)-benzyl]-acetamide], the IC50 was 290 nM.

For the molecule `CC(C)N(CC(=O)NCc1cc(F)cc(-c2ccc(C(F)(F)F)nc2)c1)S(=O)(=O)c1ccc(F)cc1` [Example 63, 2-[(4-Fluoro-benzenesulfonyl)-isopropyl-amino]-N-[3-fluoro-5-(6-trifluoromethyl-pyridin-3-yl)-benzyl]-acetamide], the IC50 is 38 nM. Under `CN(CC(=O)NCc1ccc(-c2ccc(C(F)(F)F)cc2)cc1)S(=O)(=O)c1ccc(F)cc1` [Example 10, 2-[(4-Fluoro-benzenesulfonyl)-methyl-amino]-N-(4′-trifluoromethyl-biphenyl-4-ylmethyl)-acetamide] stands 4800 nM; under `CCN(CC(=O)NCc1cc(OC)cc(-c2ccc(C(F)(F)F)cc2)c1)S(=O)(=O)c1ccc(F)cc1` [Example 44, 2-[Ethyl-(4-fluoro-benzenesulfonyl)-amino]-N-(5-methoxy-4′-trifluoromethyl-biphenyl-3-ylmethyl)-acetamide], 87 nM; under `C[C@@H](C(=O)NCc1cccc(-c2ccc(C(F)(F)F)cc2)c1)N(C)S(=O)(=O)c1ccc(F)cc1` [Example 2, (S)-2-[(4-Fluoro-benzenesulfonyl)-methyl-amino]-N-(4′-trifluoromethyl-biphenyl-3-ylmethyl)-propionamide], 35 nM. Under `CCN(CC(=O)NCc1ccc(OC)c(-c2ccc(C(F)(F)F)cc2)c1)S(=O)(=O)c1ccc(F)cc1` [Example 46, 2-[Ethyl-(4-fluoro-benzenesulfonyl)-amino]-N-(6-methoxy-4′-trifluoromethyl-biphenyl-3-ylmethyl)-acetamide] stands 130 nM; under `CC(C)[C@H](C(=O)NCc1cccc(-c2ccc(C(F)(F)F)cc2)c1)N(C)S(=O)(=O)c1ccc(F)cc1` [Example 6, (R)-2-[(4-Fluoro-benzenesulfonyl)-methyl-amino]-3-methyl-N-(4′-trifluoromethyl-biphenyl-3-ylmethyl)-butyramide], 1110 nM. Under `CCN(CC(=O)NCc1ccc(F)c(-c2ccc(C(F)(F)F)cc2)c1)S(=O)(=O)c1ccc(F)cc1` [Example 14, 2-[Ethyl-(4-fluoro-benzenesulfonyl)-amino]-N-(6-fluoro-4′-trifluoromethyl-biphenyl-3-ylmethyl)-acetamide] stands 37 nM; under `CC(C)N(CC(=O)NCc1cc(-c2ccc(C(F)(F)F)nc2)ccn1)S(=O)(=O)c1ccc(F)cc1` [Example 55, 2-[(4-Fluoro-benzenesulfonyl)-isopropyl-amino]-N-(6-trifluoromethyl-[3,4′]bipyridinyl-2′-ylmethyl)-acetamide], 130 nM; under `CCN(CC(=O)NCc1ccc(-c2ccc(C(F)(F)F)cc2)cc1)S(=O)(=O)c1ccc(F)cc1` [Example 17, 2-[Ethyl-(4-fluoro-benzenesulfonyl)-amino]-N-(4′-trifluoromethyl-biphenyl-4-ylmethyl)-acetamide], 4830 nM. On to `CN(CC(=O)NCc1cc(-c2ccc(C(F)(F)F)cc2)ccc1F)S(=O)(=O)c1ccc(F)cc1` [Example 12, 2-[(4-Fluoro-benzenesulfonyl)-methyl-amino]-N-(4-fluoro-4′-trifluoromethyl-biphenyl-3-ylmethyl)-acetamide], for which the IC50 amounted to 48 nM.

Turning to `CC(C)N(CC(=O)NCc1ccnc(-c2ccc(C(F)(F)F)nc2)c1)S(=O)(=O)c1ccc(F)cc1` [Example 58, 2-[(4-Fluoro-benzenesulfonyl)-isopropyl-amino]-N-(6′-trifluoromethyl-[2,3′]bipyridinyl-4-ylmethyl)-acetamide], the IC50 is 230 nM. Under `CC(C)N(CC(=O)NCc1cccc(-c2ccc(C(F)(F)F)cn2)c1)S(=O)(=O)c1cccc(F)c1` [Example 50, 2-[(3-Fluoro-benzenesulfonyl)-isopropyl-amino]-N-[3-(5-trifluoromethyl-pyridin-2-yl)-benzyl]-acetamide] stands 79 nM; under `CC(C)N(CC(=O)NCc1cc(-c2ccc(C(F)(F)F)cc2)ncn1)S(=O)(=O)c1ccccc1C#N` [Example 65, 2-[(2-Cyano-benzenesulfonyl)-isopropyl-amino]-N-[6-(4-trifluoromethyl-phenyl)-pyrimidin-4-ylmethyl]-acetamide], 3860 nM. Consider `CC(C)N(CC(=O)NCc1cccc(-c2ccc(C(F)(F)F)cc2)c1)S(=O)(=O)c1ccc(F)cc1` [Example 39, 2-[(4-Fluoro-benzenesulfonyl)-isopropyl-amino]-N-(4′-trifluoromethyl-biphenyl-3-ylmethyl)-acetamide], for which the IC50 was 51 nM. As for `O=C(CN(CCO)S(=O)(=O)c1ccc(F)cc1)NCc1cc(-c2ccc(C(F)(F)F)cc2)ncn1` [Example 30, 2-[(4-fluoro-benzenesulfonyl)-(2-hydroxy-ethyl)-amino]-N-[6-(4-trifluoromethyl-phenyl)-pyrimidin-4-ylmethyl]acetamide], the IC50 amounted to 220 nM. Under `CN(CC(=O)NCc1cccc(-c2ccc(C(F)(F)F)cc2)c1F)S(=O)(=O)c1ccc(F)cc1` [Example 9, 2-[(4-Fluoro-benzenesulfonyl)-methyl-amino]-N-(2-fluoro-4′-trifluoromethyl-biphenyl-3-ylmethyl)-acetamide] stands 1500 nM. Turning to `CCN(CC(=O)NCc1ccc(-c2cccc(C(F)(F)F)c2)cc1)S(=O)(=O)c1ccc(F)cc1` [Example 18, 2-[Ethyl-(4-fluoro-benzenesulfonyl)-amino]-N-(3′-trifluoromethyl-biphenyl-4-ylmethyl)-acetamide], the IC50 was found to be 4810 nM. On to `CC(C)N(CC(=O)NCc1ccc(F)c(-c2cnc(C(F)(F)F)nc2)c1)S(=O)(=O)c1ccc(F)cc1` [Example 70, 2-[(4-Fluoro-benzenesulfonyl)-isopropyl-amino]-N-[4-fluoro-3-(2-trifluoromethyl-pyrimidin-5-yl)-benzyl]-acetamide], for which the IC50 was 48 nM. Under `CC(C)N([C@@H](C)C(=O)NCc1cc(-c2ccc(C(F)(F)F)cc2)ncn1)S(=O)(=O)c1ccc(F)cc1` [Example 32, (S)-2-[(4-Fluoro-benzenesulfonyl)-isopropyl-amino]-N-[6-(4-trifluoromethyl-phenyl)-pyrimidin-4-ylmethyl]-propionamide] stands 190 nM.
